Assay results reported in patent publication US20060122181A1, “Heteroaromatic pentacyclic compound and medicinal use thereof” (Japan Tobacco Inc., priority 2003, published 2006).
Structures can show the parent of a compound that is named as a salt.

Legend:
[1] = target: T1, Recombinant human protein tyrosine phosphatase 1B (Homo sapiens, UniProt P18031); assay: Protein tyrosine phosphatase 1B inhibitory activity (malachite green, phosphorylated insulin receptor peptide substrate); format: biochemical; details: recombinant human PTP1B, 60 min room temperature, absorbance 650 nm
T1 construct: purchased UBI
T1 sequence (P18031 1-435): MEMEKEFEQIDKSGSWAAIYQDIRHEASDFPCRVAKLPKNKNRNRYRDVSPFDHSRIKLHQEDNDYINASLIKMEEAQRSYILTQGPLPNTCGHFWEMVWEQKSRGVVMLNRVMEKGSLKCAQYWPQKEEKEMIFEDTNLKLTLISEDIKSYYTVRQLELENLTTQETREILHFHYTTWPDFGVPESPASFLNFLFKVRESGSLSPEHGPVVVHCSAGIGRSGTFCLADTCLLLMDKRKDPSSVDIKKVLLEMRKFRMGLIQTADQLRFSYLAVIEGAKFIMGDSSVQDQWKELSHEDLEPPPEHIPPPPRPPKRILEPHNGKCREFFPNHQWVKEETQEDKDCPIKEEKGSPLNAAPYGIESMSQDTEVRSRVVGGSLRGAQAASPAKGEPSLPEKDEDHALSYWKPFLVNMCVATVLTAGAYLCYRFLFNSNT

male ob/ob mice = assay: Hypoglycemic activity in ob/ob mice; format: in vivo; details: fasting, relative to control group
Description: A 0.5% methyl cellulose suspension of the test compound was orally administered to 6- to 9-week-old male ob/ob mice grouped according to the glucose level. Only a 0.5% methyl cellulose solution was administered to a control group.
Blood was drawn under fasting condition, which condition was started simultaneously with the administration by means of removing the feed. The blood was drawn under anesthesia from the orbital vein 3 hours after the administration. The blood thus taken was centrifuged and the glucose level was measured from the obtained plasma by the hexokinase method (glucose measurement kit). For evaluation, the percentage (%) of decrease in the glucose level of the test compound-administered group relative to the control group is shown.

female ob/ob mice [2] = assay: Effect of concomitant use with glibenclamide on hypoglycemic activity; format: in vivo; details: glibenclamide 3 mg/kg oral alone, relative to control
Description: (§1) To 10-week-old female ob/ob mice grouped according to glucose level were orally administered a 0.5% methyl cellulose suspension of the test compound {note: Example 4-2 (1 mg/kg)} (test compound-administered group), a 0.5% methyl cellulose suspension of glibenclamide (3 mg/kg) (glibenclamide-administered group), simultaneously both a 0.5% methyl cellulose suspension of the test compound and a 0.5% methyl cellulose suspension (glibenclamide 3 mg/kg) (test compound and glibenclamide concomitant use group), or a 0.5% methyl cellulose solution alone (control group).
Blood was drawn under fasting condition, which condition was started simultaneously with the administration by means of removing the feed. […] The blood thus taken was centrifuged and the glucose level was measured from the obtained plasma by the hexokinase method (glucose kit). For evaluation, the percentage (%) of decrease in the glucose level of each group other than the control group relative to the control group is shown.

female ob/ob mice [3] = assay: Effect of concomitant use with metformin hydrochloride on hypoglycemic activity; format: in vivo; details: metformin chloride 30 mg/kg oral alone, ob/ob mice, relative to control
Description: as §1, with “metformin chloride (30” for “glibenclamide (3”, “(metformin-administered” for “(glibenclamide-administered”, “(metformin chloride 30” for “(glibenclamide 3”, “metformin” for “glibenclamide”, “group). The ob/ob mice were fasted for 3 hours before administration.” for “group).”
Blood was drawn under fasting condition, which condition was started simultaneously with the administration by means of removing the feed. The blood was drawn under anesthesia from the orbital vein 3 and 5 hours after the administration. The blood thus taken was centrifuged and the glucose level was measured from the obtained plasma by the hexokinase method (glucose kit). For evaluation, the percentage (%) of decrease in the glucose level of each group other than the control group relative to the control group is shown.

IC50 [1] | melting point | SMILES | blood glucose decreasing rate (%) 3 hours later (male ob/ob mice; dose 1 mg/kg oral) | further results
0.28 µM |  | CCC(CC)c1ccc(N(Cc2ccc(-c3csc(COc4cncc(C(=O)O)c4)n3)cc2)C(C)C)cc1 [Example 1-1, 5-{4-[4-({[4-(1-Ethylpropyl)phenyl]isopropylamino}methyl)-phenyl]thiazol-2-ylmethoxy}nicotinic acid] | 45% | 
0.13 µM |  | CCCC(CCC)c1ccc(N(C)Cc2ccc(-c3csc(CN(C)S(=O)(=O)c4ccc(C(=O)O)cc4)n3)cc2)cc1 [Example 1-15] | 35% | 
0.1 µM | 110 to 113 °C | CCCC(CCC)c1ccc(N(C)Cc2ccc(-c3csc(N(C)Cc4ccc(C(=O)O)cc4)n3)cc2)cc1 [Example 1-19] | 35% | 
0.13 µM | 138 °C | CCCC(CCC)c1ccc(N(C)Cc2ccc(-c3csc(CN(CC(=O)O)Cc4ccccc4)n3)cc2)cc1 [Example 1-25] | 25% | 
0.14 µM | 209 to 211 °C | CN(Cc1ccc(C(=O)O)cc1)c1nc(-c2ccc(COc3ccc(C4CCCCC4)cc3)cc2)cs1 [Example 1-37] |  | blood glucose decreasing rate (%) 3 hours later (male ob/ob mice; dose 3 mg/kg oral): 26%
0.19 µM | 156 to 158 °C | CCCC(CCC)c1ccc(OCc2ccc(-c3csc(N(C)Cc4ccc(C(=O)O)cc4)n3)cc2)cc1 [Example 1-39] | 32% | 
0.22 µM | 138 to 142 °C | CCCC(CCC)c1ccc(OCc2ccc(-c3csc(CN(CC(=O)O)Cc4ccccc4)n3)cc2)cc1 [Example 1-44] | 20% | 
0.066 µM | 117 to 126 °C | CCCC(CCC)c1ccc(OCc2ccc(-c3csc(CN4Cc5ccccc5CC4C(=O)O)n3)cc2)cc1 (stereo not shown) [Example 1-45] | 32% | 
0.23 µM | 165 to 171 °C | CCCC(CCC)c1ccc(OCc2ccc(-c3csc(COc4cncc(C(=O)O)c4)n3)cc2)cc1 [Example 1-48] | 46% | 
0.18 µM |  | CCC(CC)c1ccc(N(Cc2ccc(-c3csc(CN(CC(=O)O)CC(=O)Nc4ccc(C(C)C)cc4)n3)cc2)C(C)C)cc1 [Example 1-78] |  | blood glucose decreasing rate (%) 3 hours later (male ob/ob mice; dose 3 mg/kg oral): 24%
0.17 µM | 126 to 128 °C | CCCC(CCC)c1ccc(COc2ccc(C)cc2-c2csc(CN(CC(=O)O)Cc3ccccc3)n2)cc1 [Example 3-9] | 18% | 
0.2 µM | 145 to 148 °C | CCCC(CCC)c1ccc(COc2ccc(-c3csc(CN(CC(=O)O)Cc4ccccc4)n3)cc2)cc1 [Example 3-10] | 18% | 
0.27 µM | 138 to 140 °C | CCC(CC)c1ccc(COc2ccc(-c3csc(CN(CC(=O)O)Cc4ccc(C(C)C)cc4)n3)cc2)cc1 [Example 3-15] | 25% | 
0.45 µM | 118 to 120 °C | CCCC(CCC)c1ccc(COc2ccc(C)cc2-c2csc(CN(CC(=O)O)Cc3ccccn3)n2)cc1 [Example 3-21] | 27% | 
0.14 µM | 149 to 152 °C | CCCC(CCC)c1ccc(COc2ccc(C)cc2-c2csc(CN3Cc4ccccc4CC3C(=O)O)n2)cc1 (stereo not shown) [Example 3-25] | 20% | 
0.41 µM | 148 to 150 °C | CN(Cc1ccc(C2CCCCC2)cc1)c1ccc(-c2csc(CN(CC(=O)O)Cc3ccccc3)n2)cc1 [Example 3-29] |  | blood glucose decreasing rate (%) 3 hours later (male ob/ob mice; dose 3 mg/kg oral): 41%

IC50 [1] | melting point | SMILES | blood glucose decreasing rate (%) 3 hours later (male ob/ob mice; dose 1 mg/kg oral) | further results
0.18 µM | 157 to 159 °C | CN(Cc1ccc([C@H]2CC[C@H](C)CC2)cc1)c1ccc(-c2csc(CN(CC(=O)O)Cc3ccccc3)n2)cc1 [Example 3-32] | 14% | 
0.1 µM |  | CCCC(CCC)c1ccc(CN(C)c2ccc(-c3csc(CN(CC(=O)O)Cc4ccccc4)n3)cc2)cc1 [Example 3-36] |  | blood glucose decreasing rate (%) 3 hours later (male ob/ob mice; dose 3 mg/kg oral): 52%
0.54 µM |  | CN(Cc1ccc([C@H]2CC[C@H](C)CC2)cc1)c1ccc(-c2csc(CN(CC(=O)O)Cc3ccccn3)n2)cc1 [Example 3-52] | 28% | 
0.28 µM | 117 to 120 °C | CCCC(CCC)c1ccc(CN(C)c2ccc(-c3csc(CN(CC(=O)O)Cc4ccccn4)n3)cc2)cc1 [Example 3-53] | 20% | 
0.39 µM | 124 to 126 °C | CC(C)Cc1ccc(CN(C)c2ccc(-c3csc(CN(CC(=O)O)C(=O)Cc4ccc(C(C)C)cc4)n3)cc2)cc1 [Example 3-58] | 23% | 
0.21 µM | 186 to 187 °C | CCCC(CCC)c1ccc(CN(C)c2ccc(-c3csc([C@@H]4Cc5ccccc5CN4CC(=O)[O-])n3)cc2)cc1.[Na+] [Example 3-64] | 13% | 
0.2 µM | 176 to 179 °C | CCCC(CCC)c1ccc(CN(C)c2ccc(-c3csc(CN4Cc5ccccc5CC4C(=O)O)n3)cc2)cc1 (stereo not shown) [Example 3-73] | 14% | 
0.48 µM | 185 to 190 °C | CN(Cc1ccc(C2CCCCC2)cc1)c1ccc(-c2csc(CNC(Cc3ccccc3)C(=O)O)n2)cc1 (stereo not shown) [Example 3-76] | 33% | 
0.2 µM | 143 °C | CCCC(CCC)c1ccc(CN(C)c2ccc(-c3csc(CN(C)[C@@H](Cc4ccccc4)C(=O)O)n3)cc2)cc1 [Example 3-86] | 16% | 
0.18 µM | 166 to 167 °C | CC(C)CCN(CC(=O)O)Cc1nc(-c2ccc(N(C)Cc3ccc([C@H]4CC[C@H](C)CC4)cc3)cc2)cs1 [Example 3-92] | 26% | 
0.16 µM | 218 to 221 °C | CN(Cc1ccc(C2CCC(C)(C)CC2)cc1)c1ccc(-c2csc(CN(C)S(=O)(=O)c3ccc(C(=O)O)cc3)n2)cc1 [Example 3-98] |  | blood glucose decreasing rate (%) 3 hours later (male ob/ob mice; dose 3 mg/kg oral): 31%
0.15 µM | 193 to 196 °C | CN(Cc1ccc(C2CCCCC2)cc1)c1ccc(-c2csc(CN(C)S(=O)(=O)c3ccc(C(=O)O)cc3)n2)cc1 [Example 3-100] |  | blood glucose decreasing rate (%) 3 hours later (male ob/ob mice; dose 3 mg/kg oral): 20%
0.16 µM |  | CN(Cc1ccc([C@H]2CC[C@H](C)CC2)cc1)c1ccc(-c2csc(COC(=O)N(CC(=O)O)Cc3ccccc3)n2)cc1 [Example 3-108] | 29% | 
 |  | COc1ccc(Cl)cc1C(=O)NCCc1ccc(S(=O)(=O)NC(=O)NC2CCCCC2)cc1 [Glibenclamide, glibenclamide, reference compound] |  | blood glucose decreasing rate (%) 3 hours later (female ob/ob mice [2]): 44%; blood glucose decreasing rate (%) 15 hours later (female ob/ob mice [2]): 40%
 |  | CN(C)C(=N)N=C(N)N [Metformin, metformin hydrochloride, reference compound] |  | blood glucose decreasing rate (%) 3 hours later (female ob/ob mice [3]): 17%; blood glucose decreasing rate (%) 5 hours later (female ob/ob mice [3]): 39%

SMILES | IC50 [1] | melting point | blood glucose decreasing rate (%) 3 hours later (male ob/ob mice; dose 1 mg/kg oral) | further results
CN(Cc1ccc(C2CCCCC2)cc1)c1ccc(-c2csc(CN3CCC(C(=O)O)(c4ccccc4)CC3)n2)cc1 [Example 3-67] | 0.23 µM | 220 to 222 °C |  | blood glucose decreasing rate (%) 3 hours later (male ob/ob mice; dose 3 mg/kg oral): 20%
